Measured values from US4554284A, “7-(2-Aminoethyl)-1,3-benzthia- or oxa-zol-2(3H)-ones” (Smithkline Beckman Corporation, priority 1984, dated 1985).
Read-outs that look alike come from different tables or passages of the source.

Biological target: T1, D2-receptors (presynaptic dopaminergic receptors) (Oryctolagus cuniculus, UniProt G1T1Q0)
T1 construct: perfused rabbit ear artery protocol; from tissue; host or cells: rabbit ear artery (perfused, isolated)
Assay: perfused rabbit ear artery protocol (D2-agonist activity)
Format: cell-based

[1] = perfused rabbit ear artery, D2-agonist activity, read-out: EC50

T1 sequence (G1T1Q0 1-443): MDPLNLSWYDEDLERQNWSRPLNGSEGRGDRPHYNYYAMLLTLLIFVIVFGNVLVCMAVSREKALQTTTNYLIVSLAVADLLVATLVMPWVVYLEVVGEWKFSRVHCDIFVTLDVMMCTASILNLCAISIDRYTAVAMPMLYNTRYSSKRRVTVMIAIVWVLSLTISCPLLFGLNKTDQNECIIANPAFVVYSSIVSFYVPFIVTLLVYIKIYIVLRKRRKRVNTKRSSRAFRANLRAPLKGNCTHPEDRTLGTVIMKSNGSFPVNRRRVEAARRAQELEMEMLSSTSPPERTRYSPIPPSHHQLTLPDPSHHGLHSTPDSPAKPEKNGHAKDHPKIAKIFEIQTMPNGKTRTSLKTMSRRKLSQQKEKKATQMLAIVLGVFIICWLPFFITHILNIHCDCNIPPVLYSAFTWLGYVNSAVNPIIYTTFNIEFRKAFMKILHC

Row | EC50 [1] [nM] | times more potent than its oxa congener [times] | times more potent than the corresponding indolone [times] | SMILES | EC50 [nM]
1 | 50 |  |  | CCCN(CCC)CCc1c(Cl)cc(O)c2nc(O)sc12 [B, 4-hydroxy-6-chloro-7-[2-(di-n-propylamino)ethyl]-1,3-benzthiazol-2(3H)-one] | 
2 | 8 |  |  | CCCN(CCC)CCc1ccc(O)c2[nH]c(=O)oc12 [C, 4-hydroxy-7-[2-(di-n-propylamino)ethyl]-1,3-benzoxazol-2(3H)-one] | 
3 | 0.2 | ~40 | 10 | CCCN(CCC)CCc1ccc(O)c2[nH]c(=O)sc12 [Compound A, 4-hydroxy-7-[2-(di-n-propylamino)ethyl]-1,3-benzthiazol-2(3H)-one] | 
4 |  |  |  | NCCc1ccc(O)c(O)c1 [D, dopamine, reference compound] | 40
5 | 200 |  |  | CCCN(CCC)CCc1ccc(O)c2[nH]c(=O)ccc12 [E, 8-hydroxy-5-[2-(di-n-propylamino)ethyl]-carbostyril, reference compound] | 
